Measured values taken from PMC8869242 (Biomedicines, 2022).
Where two headings read alike, the source gives them in different places.

Key:
[1] = tested on: MDA-MB-231 cells; test: Cell proliferation assay (label-free live cell counting), MDA-MB-231; type: cell-based, human
Description: The human triple-negative breast cancer cell line MDA-MB-231 (ATCC HTB-26) (absence of estrogen and progesterone receptors, […]) and the non-cancerous breast cell line MCF-12A (ATCC CRL-10782) were purchased from ATCC (Manassas, VA, USA). MDA-MB-231 cells were cultured in DMEM-HG cell growth medium supplemented with 10% (v/v) FBS. MCF-12A cells were cultured in DMEM/F12 medium supplemented with 20 ng/mL hEGF, 100 ng/mL cholera toxin, 0.01 mg/mL bovine insulin, 500 ng/mL hydrocortisone and 5% (v/v) horse serum. Cells were cultured in monolayers in a sterile environment at 37 °C with 5% CO2 humidified atmosphere. Under these conditions, the population doubling time was 25.5 ± 0.9 h and 20.6 ± 3.1 h for MDA-MB-231 and MCF-12A cells, respectively. The cell cultures were routinely screened for mycoplasma contamination, yielding negative results.
Cells were seeded in 96-well microplates at the cell density 1.5 × 10^4 cells/cm^2 (final volume 200 µL/well) and left 24 h to attach. […] Label-free kinetic live monitoring of cell proliferation was performed using LionheartFX automated microscope (BioTek, Winooski, VT, USA) with direct image acquisition of cells in microplates at 0, 24, 48 and 72 h post-addition of the tested compounds. Acquired 4X images were processed using Gen 5 Image Analysis software (BioTek, Winooski, VT, USA) that allows for identification and counting of individual cells per image. The normalized cell growth (%) was calculated using the following formula: C(t) = [(Number of Treated Cells(t) − Number of Treated Cells(0))/(Number of Untreated Cells(t) − Number of Untreated Cells(0))] × 100, where C(t) is the percent of net cell growth over time, Number of Treated Cells(t) is the count of cells treated with drug at each time point, Number of Treated Cells(0) is the count cells treated with drug at time 0 h, Number of Untreated Cells(t) is the count of untreated (control) cells at each time point, Number of Untreated Cells(0) is the count of untreated (control) cells at time 0 h.

[2] = tested on: chicken embryo chorioallantoic membrane (CAM); test: In vivo CAM assay (neovascularization); settings: for CAM early steps of angiogenesis: number of nodes, junctions and segments / CAM later steps of angiogenesis: total length, total branching length and total segment length: 2 to 8 µM
Description: The chicken embryo chorioallantoic membrane (CAM) assay was used to study the effect of tested drugs on neovascularization, as described elsewhere. Briefly, fertilized chicken eggs were incubated at 37.5 °C in a humidified atmosphere with agitation. After 3 days of incubation, 2.5 mL of albumen was removed to detach developing CAM from the shell. A window in the eggshell was cut off to expose the embryo, and then, the eggshell was sealed with paraffin. Incubation of fertilized eggs continued until day 9, when the windows were unsealed and four paper disks previously sterilized and pre-treated with hydrocortisone ([…] to avoid inflammatory responses) were placed in direct contact with CAM in each egg (3 PBS-soaked disks and 1 VEGF-soaked (10 ng/mL) disk), and windows were re-sealed with paraffin. […] The remaining two disks were used as negative/vehicle (treated with PBS) and positive (treated with VEGF) controls. The eggs were further incubated two more days, and at […], the disks bound to the CAM were removed, placed in PBS and imaged using a contrast-phase microscope (Motic® AE200 inverted microscope, Spectra Services, VWR International) (with a 4X magnification) coupled to a Moticam 5 digital camera. Images were analyzed using the Angiogenesis Analyzer for Fiji.

[3] = tested on: MDA-MB-231 cells; test: Cell migration, wound healing (scratch) assay; type: cell-based, human; settings: from AUC0-18h of wound confluence, n = 5; for logEC50 (migration of MDA-MB-231 cells): mean ± SEM
Description: The effect of compounds on cell migration was studied using wound healing assay (or scratch assay). Triple-negative breast cancer MDA-MB-231 cells were seeded in 24-well microplate at the cell density 12.5 × 10^4 cells/cm^2 (1 mL final volume) and left 24 h to attach and create a confluent monolayer. The cell monolayer was scratched with 200 µL pipette tip, producing a vertical straight wound in the middle of the well; growth medium was removed and wells were washed twice with growth medium to remove all detached cells. […] Wound closure was analyzed as a confluence of the initial cell-free area covered by migrating cells at the indicated time points measured with Gen 5 Image Analysis software. Confluence was calculated using the following formula: C(t) = [(Object Sum Area(t) − Object Sum Area(0))/(I(A) − Object Sum Area(0))] × 100, where C(t) is the percent wound confluence over time, Object Sum Area(t) is the area covered by cells at each time point, Object Sum Area(0) is the area covered by cells at time 0 h and I(A) is the total area of the 4X image.

[4] = tested on: MDA-MB-231 breast tumors; test: Subcutaneous in vivo breast cancer xenograft study, tumor growth; set-up: species or system mice; settings: i.p. 5 consecutive days, Pd2Spm 5 mg/kg/day, cisplatin 2 mg/kg/day; for tumor growth reduction (versus the vehicle group): end of experiment (day 39 post-implantation); for average tumor volumes compared to vehicle-treated control mice: p < 0.05
Description: Female CBA nude (N:NIH(S)II-nu/nu) mice (6–7 weeks old, 21 animals in total) with combined immunodeficiency were purchased from i3S Animal Facility (Porto, Portugal). Animals were acclimatized at ICBAS-UP Rodent Animal House Facility (Porto, Portugal) at least one week prior to the experiments, were randomly distributed into groups of three per individually ventilated cage and were housed under controlled specific-pathogen-free (SPF) environmental conditions (temperature 22.5 ± 1.5 °C; relative humidity 50 ± 10%; 12 h light/dark cycle) with ad libitum access to water and standard pellet food (4RF21, Mucedola, Italy). Environmental enrichment included corncob bedding, paper roll tube and one large sheet of tissue paper for nesting. Animals were monitored daily for health status and welfare.

[5] = tested on: VEGF secretion by MDA-MB-231 cells; test: VEGF production, Human VEGF Quantikine ELISA of cell culture medium; type: cell-based; settings: MDA-MB-231, 5–20 µM, 12 h
Description: MDA-MB-231 cells were seeded in 96-well microplates at the cell density 1.5 × 10^4 cells/cm^2 (final volume 200 µL/well) and left 24 h to attach. […] VEGF concentration in cell culture medium was determined in undiluted samples in duplicate using the Human VEGF Quantikine ELISA Kit (R&D Systems Inc., Minneapolis, MN, USA) according to the manufacturer’s protocol. In brief, 200 μL of conditioned media was added to a 96-well microplate pre-coated with monoclonal antibody for human VEGF and the plate was incubated for 2 h. After washing with wash buffer, enzyme-linked polyclonal antibody specific for human VEGF was added, followed by incubation for 2 h. The plate was washed to remove unbound antibody-enzyme reagent, substrate solution was added and incubated for 30 min and the reaction was terminated by the addition of the stop solution, producing a yellow solution. The optical density at 450 nm with wavelength correction at 540 nm was measured using a Synergy HT microplate reader (BioTek, Winooski, VT, USA). The concentration of VEGF was interpolated from the standard curve (15.6–1000 pg/mL) prepared in parallel.

[6] = MDA-MB-231, 24 h of incubation, n = 4
[7] = MDA-MB-231, 24 h of incubation, n = 4, read-out: IC50 in µM [95% CI]
[8] = MDA-MB-231, 48 h of incubation, n = 4
[9] = MDA-MB-231, 48 h of incubation, n = 4, read-out: IC50 in µM [95% CI]
[10] = MDA-MB-231, 72 h of incubation, n = 4
[11] = MDA-MB-231, 72 h of incubation, n = 4, read-out: IC50 in µM [95% CI]

Row | Structure (SMILES) | logIC50 ± SEM [1, 6] | IC50 [1, 7] [µM] | logIC50 ± SEM [1, 8] | IC50 [1, 9] [µM] | logIC50 ± SEM [1, 10] | IC50 [1, 11] [µM] | CAM early steps of angiogenesis: number of nodes, junctions and segments [2] | CAM later steps of angiogenesis: total length, total branching length and total segment length [2] | logEC50 (migration of MDA-MB-231 cells) [3] | EC50 [3] [µM] | tumor growth reduction (versus the vehicle group) [4] [%] | average tumor volumes compared to vehicle-treated control mice [4] | VEGF secretion in cell culture medium [5] | IC50 ([1]; MDA-MB-231, 24-72 h, read-out: IC50 values (range over incubation times)) [µM] | angiogenesis in CAM at single concentration ([2]; 8 µM (4.46 µg/mL))
1 | N.N.[Cl][Pt][Cl] [Cisplatin, cis-dichlorodiammine platinum(II), reference compound] | −5.459 ± 0.036 | 3.5 | −6.005 ± 0.027 | 1 | −6.043 ± 0.020 | 0.9 | decrease, in a dose-dependent manner | reduced, in a dose-dependent manner | −4.329 ± 0.130 | 46.9 | 56.6 | significantly lower | inhibited VEGF secretion in cell culture medium in a dose-dependent manner | – | –
2 | NCCCNCCCCNCCCN.[Cl][Pd][Cl].[Cl][Pd][Cl] [Pd2Spm, dinuclear palladium(II)-spermine chelate] | −5.081 ± 0.024 | 8.3 | −5.105 ± 0.022 | 7.9 | −5.137 ± 0.021 | 7.3 | decrease, in a dose-dependent manner | reduced, in a dose-dependent manner | −4.243 ± 0.113 | 57.2 | 43.3 | significantly lower | inhibited VEGF secretion in cell culture medium in a dose-dependent manner | 7.3 to 8.3 | significantly inhibited angiogenesis
